In PubChem BioAssay AID1963451 (Molecular Pharmacology Branch, DTP, NCI, 2024):

Tested on: 521955-158-R6-J3-PDC complex spheroid growth, % test/control
Assay: Anticancer human tumor 521955-158-R6-J3-PDC patient-derived pancreatic carcinoma cell line growth inhibition [Asc]
Details: for IC50: curve of first compound; for viability, T/C: stronger effect = lower value
In short: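 Tumor cells were grown as complex spheroids with human endothelial cells (HUVEC) and human mesenchymal stem cells as stroma. Agents were tested alone and in combination, in half-log steps down from the clinical Cmax, or from 10 microM where Cmax was unknown.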
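Also: spheroids exposed to compounds for 7 days.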
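For viability, T/C in this document: 100% = DMSO vehicle control wells.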

Cc1nc(N2CCC3(CC2)COC(C)C3N)c(CO)nc1Sc1ccnc(N)c1Cl (stereo unspecified) + Cc1c(S(C)(=O)=O)c(-c2cc(F)cc(N3CCN(c4ccc(NS(=O)(=O)c5ccc(NC(CCN6CCC(C(=O)OCCCP(=O)(O)O)CC6)CSc6ccccc6)c(S(=O)(=O)C(F)(F)F)c5)cc4)CC3)c2)c(-c2ccc(Cl)cc2)n1C(C)C
IC50 (second compound 0.0316 µM): > 3000 nM | IC50 (second compound 0.1 µM): 177 nM | IC50 (second compound 0.316 µM): < 9.49 nM | IC50 (second compound 1 µM): < 9.49 nM | IC50 (second compound 3.16 µM): < 9.49 nM | IC50 (second compound 10 µM): < 9.49 nM | viability, T/C (second compound 0.0316 µM, first compound 0.00949 µM): 81.8% | viability, T/C (second compound 0.0316 µM, first compound 0.03 µM): 75% | viability, T/C (second compound 0.0316 µM, first compound 0.0949 µM): 57.6% | viability, T/C (second compound 0.0316 µM, first compound 0.3 µM): 61.2% | viability, T/C (second compound 0.0316 µM, first compound 0.949 µM): 58.6% | viability, T/C (second compound 0.0316 µM, first compound 3 µM): 51.7% | viability, T/C (second compound 0.1 µM, first compound 0.00949 µM): 77.4% | viability, T/C (second compound 0.1 µM, first compound 0.03 µM): 63.2% | viability, T/C (second compound 0.1 µM, first compound 0.0949 µM): 49.1% | viability, T/C (second compound 0.1 µM, first compound 0.3 µM): 54.4% | viability, T/C (second compound 0.1 µM, first compound 0.949 µM): 39.6% | viability, T/C (second compound 0.1 µM, first compound 3 µM): 39.9% | viability, T/C (second compound 0.316 µM, first compound 0.00949 µM): 42.6% | viability, T/C (second compound 0.316 µM, first compound 0.03 µM): 38.7% | viability, T/C (second compound 0.316 µM, first compound 0.0949 µM): 41.9% | viability, T/C (second compound 0.316 µM, first compound 0.3 µM): 29% | viability, T/C (second compound 0.316 µM, first compound 0.949 µM): 31.1% | viability, T/C (second compound 0.316 µM, first compound 3 µM): 22.3% | viability, T/C (second compound 1 µM, first compound 0.00949 µM): 26.3% | viability, T/C (second compound 1 µM, first compound 0.03 µM): 24.8% | viability, T/C (second compound 1 µM, first compound 0.0949 µM): 22.8% | viability, T/C (second compound 1 µM, first compound 0.3 µM): 26% | viability, T/C (second compound 1 µM, first compound 0.949 µM): 15.5% | viability, T/C (second compound 1 µM, first compound 3 µM): 14.1% | viability, T/C (second compound 3.16 µM, first compound 0.00949 µM): 16.7% | viability, T/C (second compound 3.16 µM, first compound 0.03 µM): 19.9% | viability, T/C (second compound 3.16 µM, first compound 0.0949 µM): 12.2% | viability, T/C (second compound 3.16 µM, first compound 0.3 µM): 12.5% | viability, T/C (second compound 3.16 µM, first compound 0.949 µM): 11.6% | viability, T/C (second compound 3.16 µM, first compound 3 µM): 8.25% | viability, T/C (second compound 10 µM, first compound 0.00949 µM): 12.8% | viability, T/C (second compound 10 µM, first compound 0.03 µM): 11.4% | viability, T/C (second compound 10 µM, first compound 0.0949 µM): 12.7% | viability, T/C (second compound 10 µM, first compound 0.3 µM): 7.14% | viability, T/C (second compound 10 µM, first compound 0.949 µM): 8.9% | viability, T/C (second compound 10 µM, first compound 3 µM): 8.72%

C=C(F)C(=O)N1CCN(c2nc(OCC3CCCN3C)nc3c2CCN(c2cccc4cccc(Cl)c24)C3)CC1CC#N (stereo unspecified) + CCN1C(C(=O)NC23CCC(C(=O)O)(CC2)CC3)C(c2cccc(Cl)c2F)C2(C(=O)Nc3cc(Cl)ccc32)C12CCCCC2
IC50 (second compound 0.00949 µM): 4820 nM | IC50 (second compound 0.03 µM): 5190 nM | IC50 (second compound 0.0949 µM): 4750 nM | IC50 (second compound 0.3 µM): 5350 nM | IC50 (second compound 0.949 µM): 5090 nM | IC50 (second compound 3 µM): 5580 nM | viability, T/C (second compound 0.00949 µM, first compound 0.0316 µM): 107% | viability, T/C (second compound 0.00949 µM, first compound 0.1 µM): 98.7% | viability, T/C (second compound 0.00949 µM, first compound 0.316 µM): 102% | viability, T/C (second compound 0.00949 µM, first compound 1 µM): 95.6% | viability, T/C (second compound 0.00949 µM, first compound 3.16 µM): 79.4% | viability, T/C (second compound 0.00949 µM, first compound 10 µM): 0.48% | viability, T/C (second compound 0.03 µM, first compound 0.0316 µM): 117% | viability, T/C (second compound 0.03 µM, first compound 0.1 µM): 108% | viability, T/C (second compound 0.03 µM, first compound 0.316 µM): 111% | viability, T/C (second compound 0.03 µM, first compound 1 µM): 91.7% | viability, T/C (second compound 0.03 µM, first compound 3.16 µM): 90.2% | viability, T/C (second compound 0.03 µM, first compound 10 µM): 2.78% | viability, T/C (second compound 0.0949 µM, first compound 0.0316 µM): 113% | viability, T/C (second compound 0.0949 µM, first compound 0.1 µM): 121% | viability, T/C (second compound 0.0949 µM, first compound 0.316 µM): 108% | viability, T/C (second compound 0.0949 µM, first compound 1 µM): 94% | viability, T/C (second compound 0.0949 µM, first compound 3.16 µM): 81.8% | viability, T/C (second compound 0.0949 µM, first compound 10 µM): 0.48% | viability, T/C (second compound 0.3 µM, first compound 0.0316 µM): 109% | viability, T/C (second compound 0.3 µM, first compound 0.1 µM): 97.7% | viability, T/C (second compound 0.3 µM, first compound 0.316 µM): 96% | viability, T/C (second compound 0.3 µM, first compound 1 µM): 92.4% | viability, T/C (second compound 0.3 µM, first compound 3.16 µM): 91.6% | viability, T/C (second compound 0.3 µM, first compound 10 µM): 0.41% | viability, T/C (second compound 0.949 µM, first compound 0.0316 µM): 103% | viability, T/C (second compound 0.949 µM, first compound 0.1 µM): 110% | viability, T/C (second compound 0.949 µM, first compound 0.316 µM): 103% | viability, T/C (second compound 0.949 µM, first compound 1 µM): 113% | viability, T/C (second compound 0.949 µM, first compound 3.16 µM): 84.9% | viability, T/C (second compound 0.949 µM, first compound 10 µM): 0.49% | viability, T/C (second compound 3 µM, first compound 0.0316 µM): 94% | viability, T/C (second compound 3 µM, first compound 0.1 µM): 109% | viability, T/C (second compound 3 µM, first compound 0.316 µM): 102% | viability, T/C (second compound 3 µM, first compound 1 µM): 86.2% | viability, T/C (second compound 3 µM, first compound 3.16 µM): 101% | viability, T/C (second compound 3 µM, first compound 10 µM): 0.33%

C#Cc1c(F)ccc2cc(O)cc(-c3ncc4c(N5CC6CCC(C5)N6)nc(OCC56CCCN5CC(F)C6)nc4c3F)c12 (stereo unspecified) + CNC(C)C(=O)NC1CN(S(=O)(=O)c2cccc(S(=O)(=O)N3CCC4CCC(C(=O)NC(c5ccccc5)c5ccccc5)N4C(=O)C(NC(=O)C(C)NC)C3)c2)CCC2CCC(C(=O)NC(c3ccccc3)c3ccccc3)N2C1=O
IC50 (second compound 0.00316 µM): 115 nM | IC50 (second compound 0.01 µM): 63 nM | IC50 (second compound 0.0316 µM): 55.9 nM | IC50 (second compound 0.1 µM): 70.3 nM | IC50 (second compound 0.316 µM): 42 nM | IC50 (second compound 1 µM): < 31.6 nM | viability, T/C (second compound 0.00316 µM, first compound 0.0316 µM): 57.4% | viability, T/C (second compound 0.00316 µM, first compound 0.1 µM): 45.8% | viability, T/C (second compound 0.00316 µM, first compound 0.316 µM): 46.8% | viability, T/C (second compound 0.00316 µM, first compound 1 µM): 38.4% | viability, T/C (second compound 0.00316 µM, first compound 3.16 µM): 36.3% | viability, T/C (second compound 0.00316 µM, first compound 10 µM): 21.4% | viability, T/C (second compound 0.01 µM, first compound 0.0316 µM): 56.6% | viability, T/C (second compound 0.01 µM, first compound 0.1 µM): 44.7% | viability, T/C (second compound 0.01 µM, first compound 0.316 µM): 38.4% | viability, T/C (second compound 0.01 µM, first compound 1 µM): 34.7% | viability, T/C (second compound 0.01 µM, first compound 3.16 µM): 37% | viability, T/C (second compound 0.01 µM, first compound 10 µM): 25.1% | viability, T/C (second compound 0.0316 µM, first compound 0.0316 µM): 54.9% | viability, T/C (second compound 0.0316 µM, first compound 0.1 µM): 42.8% | viability, T/C (second compound 0.0316 µM, first compound 0.316 µM): 42% | viability, T/C (second compound 0.0316 µM, first compound 1 µM): 33.1% | viability, T/C (second compound 0.0316 µM, first compound 3.16 µM): 25.6% | viability, T/C (second compound 0.0316 µM, first compound 10 µM): 24.9% | viability, T/C (second compound 0.1 µM, first compound 0.0316 µM): 56.5% | viability, T/C (second compound 0.1 µM, first compound 0.1 µM): 46% | viability, T/C (second compound 0.1 µM, first compound 0.316 µM): 38.7% | viability, T/C (second compound 0.1 µM, first compound 1 µM): 38.7% | viability, T/C (second compound 0.1 µM, first compound 3.16 µM): 33.6% | viability, T/C (second compound 0.1 µM, first compound 10 µM): 24.8% | viability, T/C (second compound 0.316 µM, first compound 0.0316 µM): 54.4% | viability, T/C (second compound 0.316 µM, first compound 0.1 µM): 37% | viability, T/C (second compound 0.316 µM, first compound 0.316 µM): 33.1% | viability, T/C (second compound 0.316 µM, first compound 1 µM): 29.7% | viability, T/C (second compound 0.316 µM, first compound 3.16 µM): 33.6% | viability, T/C (second compound 0.316 µM, first compound 10 µM): 18.3% | viability, T/C (second compound 1 µM, first compound 0.0316 µM): 44.9% | viability, T/C (second compound 1 µM, first compound 0.1 µM): 41.7% | viability, T/C (second compound 1 µM, first compound 0.316 µM): 43.5% | viability, T/C (second compound 1 µM, first compound 1 µM): 30.7% | viability, T/C (second compound 1 µM, first compound 3.16 µM): 30.4% | viability, T/C (second compound 1 µM, first compound 10 µM): 21.9%
